Test results reported in patent US8133471B2, “CLK-peptide and SLK-peptide” (New York University, priority 2003, dated 2012).

How the values were obtained:
[1] = tested on: Human endothelial cells (HUVECs); assay: Endothelial cord formation in MATRIGEL; assay type: cell-based; details: 0 to 100 μg/ml, 24 hours
Description: FIG. 6 Effects of CLK Peptide on HUVEC Cord Formation in MATRIGEL®. MATRIGEL was added to 96-well plates and allowed to form three-dimensional gels. […] Representative photos were taken at a magnification of 100×. A. Untreated control. B. CLK 25 μg/ml. C. CLK 50 μg/ml. D. CLK 100 μg/ml. E. Control Peptide 100 μg/ml.
The role that the CLK cryptic collagen epitope plays in regulating endothelial cell morphogenesis and cord formation, processes important in angiogenesis, were investigated. MATRIGEL was diluted in M199 medium and 300 μl were added to the wells of a 48-well culture plate and allowed to polymerize. […] Endothelial morphogenesis and cord formation was monitored with an inverted microscope fitted with a 35 mm camera to document cord formation.

p21CIP1 = p21CIP1 expression by Western blot in M21 cells; assay type: cell-based, human; details: 100 μg/ml
Description: FIG. 12 Inhibition of Cellular Interactions by CLK-Peptide Enhances Expression of P21CIP1 in Human Melanoma (M21) Cells. Non-tissue culture treated 96-well plates were coated with denatured collagen type-IV (10 μg/ml). Human melanoma cells (M21) were allowed to proliferate in the presence or absence of CLK-Peptide or control peptide CTW (100 μg/ml) over a 3-day time course. Cells were then allowed to incubate for 12 hours in 1% serum-containing medium. Expression of P21 CIP1 and actin control were evaluated by Western blotting.
To examine whether the cryptic epitope recognized by CLK-peptide plays a role in cellular proliferation, in vitro proliferations assays were carried out (FIG. 13). In addition, the effects of CLK-peptide on expression of the CDK inhibitor p21^CIP1 were examined by Western blotting methods (FIG. 12). Non-tissue culture treated microtiter wells were coated with denatured collagen type-IV. Human M21 melanoma cells were resuspended in 1% RPMI in the presence or absence of CLK or control CTW-peptide (100 μg/ml). Proliferation was monitored by measuring the relative levels of mitochondrial dehydrogenase using a commercially available (WST-I) proliferation kit (Chemicon).

[2] = tested on: denatured collagen type-IV; assay: Competition ELISA, mAb HUIV26 binding to denatured collagen type-IV with or without CLK-peptide; details: HUIV26 1 μg/ml; CLK-peptide 100 μg/ml; 2 hours 37° C.
Description: FIG. 14 Inhibition of Binding of Labeled CLK-Peptide to Denatured Collagen Type-IV by mAbs HUI77. To examine the binding specificity of the synthetic CLK-Peptide, the peptide was labeled and solid phase ELISAs were performed. Denatured collagen type-IV (10 μg/ml) was coated on microtiter wells and binding of either HRP-labeled CLK-Peptide or mAbs (mAbs HUI77 or HUIV26) was measured by ELISA at a wavelength of 490 nm. […] B. MAb HUIV26 was allowed to bind the denatured collagen in the presence or absence of CLK-Peptide.
Microtiter wells were coated with denatured collagen type-IV (1 μg/ml) overnight at 4° C., and the plates blocked with 1% BSA for 1 hour at 37° C. HUIV26 was added at 1 μg/ml and allowed to bind the denatured collagen in the presence or absence of 100 μg/ml CLK-peptide for 2 hours at 37° C. Labeled goat-anti-mouse antibody was added at 1:3000 and incubation was allowed for 1 hour at 37° C. Color solution, then a stopping solution of 4N sulfuric acid, were added and binding was quantified by measuring the O.D. at 490 nm. […] Similar results were obtained over a wide range of peptide and antibody concentrations (1 to 100 μg/ml) (data not shown).

[3] = tested on: denatured collagen type-IV; assay: 99Tc-CLK-Peptide competitive binding to denatured collagen type-IV (gamma counter); details: collagen 10 μg/ml; 99Tc-CLK-peptide 10 μg/ml
Description: FIG. 18 Inhibition of 99Tc-CLK-Peptide binding by unlabeled HUI77.
FIG. 19 Inhibition of Binding of Labeled CLK-Peptide to Denatured Collagen Type-IV by mAb HUI77. Denatured collagen type-IV (10 μg/ml) was coated on microtiter wells and binding of 99Tc-labeled CLK-Peptide in the presence or absence of unlabeled CLK-peptide or mAb HUI77 was measured. As shown in the figure, 99Tc-CLK-peptide (10 μg/ml, 50 μl/well) specifically binds to denatured collagen type-IV (first bar from left). […] 99Tc-CLK-peptide was also allowed to bind to denatured collagen type-IV in the presence or absence of Mab HUI77 (fourth and fifth bars from left). […] These findings provide further evidence that the CLK-peptide binds to a similar if not identical epitope recognized by Mab HUI77.
^99Tc-CLK-Peptide was used in competitive binding studies to further characterize the CLK epitope. To evaluate the ability of HUI77 to compete with binding to denatured type-IV collagen, type-IV collagen was denatured at 60° C. for 15 minutes at a concentration of […] in PBS. […] The supernatant, washes and collagen-coated wells were counted in a gamma counter (1 minute counts in duplicate).
In addition, denatured collagen type-IV (10 μg/ml) was coated on microtiter wells and binding of ^99Tc-labeled CLK-Peptide in the presence or absence of either unlabeled CLK-peptide or mAb HUI77 was measured using a gamma counter. […]

[4] = tested on: Glioblastoma (GL261) cells; assay: GL261 glioblastoma cell adhesion to collagen type-IV; assay type: cell-based, murine
Description: FIG. 21 Effects of CLK-Peptide on Glioblastoma Cell Adhesion to Denatured Collagen Type-IV.
To assess the functional significance of the HUI77/CLK cryptic epitope, cell adhesion assays using a glioblastoma cell line were performed. Microtiter plates were coated with denatured collagen type-IV (10 μg/ml). Glioblastoma (GL261) cells were resuspended in adhesion buffer in the presence or absence of CLK-peptide or a non-specific control (CTW) peptide (50 μg/ml) and the […] were incubated in the coated wells for 30 minutes. Non-attached cells were removed by washing, and attached cells quantified by staining with crystal violet.

blocking of mAb HUIV26 binding to denatured collagen type-IV [2]: did not block
inhibition of 99Tc-CLK-peptide binding to denatured collagen type-IV [3]: dose-dependent inhibition
Substance: H-CLKQNGGNFSLG-OH [CLK-peptide, NH2-C-L-K-Q-N-G-G-N-F-S-L-G-COOH]
effect on endothelial cord formation [1]: dose-dependently inhibited
expression of the CDK inhibitor p21CIP1 (p21CIP1): up-regulated
inhibition of glioblastoma cell adhesion to denatured collagen type-IV ([4]; 50 μg/ml, 30 minutes): 90%
effect on glioblastoma cell adhesion to native intact collagen type-IV ([4]; data not shown): no effect
